Source: US20020166134A1, “Cardiomyocytes with enhanced proliferative potenial, and methods for preparing and using same” (priority 1999, published 2002)

What was measured:
[1] = test system: cell cycle protein; assay: Western blot analysis of cell cycle protein level changes in response to isoproterenol; type: in vivo, mice; design: key to Cyclin D2 protein level: higher numbers of the symbol “+” indicate higher levels of protein; the symbol “−” indicates none detected; details: 7 days infusion
Description: Western blots were used to analyze protein expression levels in adult MHC-CYCD2 mice and their non-transgenic litter mates. Hearts were homogenized in NP40 buffer (150 mM NaCl, 5 mM EDTA, 50 mM Tris-HCl pH 8.0, 1 μg/ml aprotinin, 1 μg/ml pepstatin, 1 μg/ml leupeptin, 50 μg/ml TLCK, 50 μg/ml PMSF, 100 μg/ml TPCK, 1% vol/vol Nonidet P-40). The homogenate was cleared by centrifugation at 40,000× g for 10 min, and the protein content of the supernatant was quantitated using a commercial assay (Bio-Rad, Richmond Calif.). Samples were separated by size on 10% polyacrylamide gels under denaturing conditions as described, and electro-blotted to nitrocellulose (Hoefer Scientific, San Francisco Calif.) membranes. The filters were stained with 0.1% naphthol blue-black in 45% methanol, 10% acetic acid to assess the efficiency of transfer. For Western analysis, nonspecific binding was blocked by incubation in block buffer (5% nonfat dry milk, 3% BSA, 0.1% Tween, 1×PBS) for 2 hr at room temperature. Commercial antibodies were used for each protein analyzed. Conditions (i.e. dilution, length of reaction, secondary antibody, etc) were according to the manufacturer's recommendations. The results are presented in Table 4 below, in which higher numbers of the symbol “+” indicate higher levels of protein, and the symbol “−” indicates none detected.
Myocardial hypertrophy was induced by isoproterenol infusion with Alzet minipumps in adult MHC-CYCD2 mice and their non-transgenic siblings (minipump model 2001, Alzet, Palo Alto Calif.; flow rate of 1 μl/hr, 0.028 g/ml isoproterenol). Hearts were harvested after 7 days of isoproterenol infusion and processed for Western blot analysis using procedures as described in Example 4. Again, higher numbers of the symbol “+” indicate higher levels of protein, and the symbol “−” indicates none detected.

[2] = Heart weight/body weight; type: in vivo, mice
Source text: A thymidine incorporation assay was used to determine if cardiomyocyte DNA synthesis persisted in adult transgenic MCH-CYCD2 animals. This testing also employed a second transgenic mouse line, designated MHC-nLAC. The MCH-nLAC mice express a nuclear localized β-galactosidase (βGAL) reporter gene exclusively in the cardiomyocytes (Soonpaa, M. H. et al., Science 264:98-101 (1994); Soonpaa, M. H. and L. J. Field, Am. J. Physiol. 272:H220-226 (1997)). Accurate cardiomyocyte tritiated thymidine labeling indices can be readily obtained with the MHC-nLAC animals simply by screening for co-localization of βGAL activity and silver grains in autoradiographs of 5-bromo-4-chloro-3-indolyl-B-D-galactoside (X-GAL) stained heart sections. To monitor the effect of cyclin D2 overexpression on cardiomyocyte DNA synthesis, MHC-CYCD2 mice were crossed with MHC-nLAC mice and animals carrying either the MHC-nLAC transgene alone or both transgenes were identified and sequestered. When the mice reached 11 weeks of age, they received a single injection of tritiated thymidine and were sacrificed four hours later. The hearts were removed, sectioned, stained with X-GAL and processed for autoradiography. […]

[3] = test system: cardiomyocytes from the left atria of MHC-CYCD2 transgenic mice; assay: Number of cardiomyocyte nuclei (kariokinesis) in left atrial cultures with isoproterenol; type: cell-based; details: isoproterenol 1 μm, 72 hrs, left atria of day 14 MHC-CYCD2 mice, FIG. 5
Description: Left atria from neonatal day 14 MHC-CYCD2 transgenic mice were harvested and digested in PBS (37° C., 60 min) containing 0.17% collagenase (Type I, Worthington Biochemical, Freehold N.J.). Cells were then triturated with a Pasteur pipette and plated at a density of 1×10^5 cells per chamber slide. Cells were cultured in DMEM supplemented with 10% FBS. In some cases, the media also contained isoproterenol (1 μm). After 72 hrs., the slides were fixed in gluteraldehyde-formaldehyde (1:1) and overlaid with 1 mg/ml X-GAL, 5 mM potassium ferricyanide, 5 mM potassium ferrocyanide and 2 mM magnesium chloride in PBS. The number of blue nuclei were counted directly on a microscope.

[4] = test system: cardiomyocytes; assay: Tritiated thymidine incorporation assay of cardiomyocyte DNA synthesis (labeling index) in adult transgenic mice, with or without isoproterenol infusion; type: in vivo; details: for Left Atrium cardiomyocyte labeling index / Right Atrium cardiomyocyte labeling index / Ventricle cardiomyocyte labeling index: isoproterenol infusion 7 days
Source text: A thymidine incorporation assay was used to determine if cardiomyocyte DNA synthesis persisted in adult transgenic MCH-CYCD2 animals. This testing also employed a second transgenic mouse line, designated MHC-nLAC. The MCH-nLAC mice express a nuclear localized β-galactosidase (βGAL) reporter gene exclusively in the cardiomyocytes (Soonpaa, M. H. et al., Science 264:98-101 (1994); Soonpaa, M. H. and L. J. Field, Am. J. Physiol. 272:H220-226 (1997)). Accurate cardiomyocyte tritiated thymidine labeling indices can be readily obtained with the MHC-nLAC animals simply by screening for co-localization of βGAL activity and silver grains in autoradiographs of 5-bromo-4-chloro-3-indolyl-B-D-galactoside (X-GAL) stained heart sections. To monitor the effect of cyclin D2 overexpression on cardiomyocyte DNA synthesis, MHC-CYCD2 mice were crossed with MHC-nLAC mice and animals carrying either the MHC-nLAC transgene alone or both transgenes were identified and sequestered. When the mice reached 11 weeks of age, they received a single injection of tritiated thymidine and were sacrificed four hours later. The hearts were removed, sectioned, stained with X-GAL and processed for autoradiography. […] In light of the sustained cardiomyocyte DNA synthesis observed in the adult MHC-CYCD2 mouse hearts, a series of experiments was initiated to ascertain how the transgenic myocardium would respond to cardiac hypertrophy. Osmotic mini-pumps (Model 2001, Alzet, Palo Alto, Calif., flow rate of 1 μl per hour) filled with saline or 0.028 g/ml isoproterenol in saline were implanted through a small longitudinal incision between the scapulae. 8 control mice (MHC-nLAC) and 8 cyclin D2 mice (MHC-nLAC/MHC-CYCD2 double transgenics) were used.
Prior to sacrifice, the experimental and control mice received a bolus injection of tritiated thymidine to permit assessment of cardiomyocyte DNA synthesis. After a 4 hour chase, the animals were sacrificed, and the hearts were harvested, cryoprotected, sectioned, stained with X-GAL and subjected to autoradiography. Once again, cardiomyocyte DNA synthesis was measured by scoring the presence of silver grains over βGAL positive nuclei. […] Isoproterenol treatment had no effect on cardiomyocyte DNA synthesis in the non-cyclin expressing control group.
Pulse chase experiments were employed to determine the fate of the cardiomyocytes synthesizing DNA. Once again, MHC-CYCD2 mice were crossed with MHC-nLAC mice. The MHC-nLAC mice express a nuclear localized β-GAL reporter exclusively in cardiomyocytes. Mice from this cross carrying either the MHC-nLAC transgene alone or both the MHC-nLAC and MHC-CYCD2 transgenes were identified and sequestered. At 11 weeks of age, myocardial hypertrophy was induced by isoproterenol infusion with Alzet minipumps (minipump model 2001, Alzet, Palo Alto Calif.; flow rate of 1 μl/hr, 0.028 g/ml isoproterenol). After 7 days of isoproterenol infusion, the control (MHC-nLAC) and experimental (MHC-nLAC/MHC-CYCD2 double transgenic) mice received a single injection of 3H-thymidine (200 uCi I.P. at 28 Ci/mM, Amersham, Arlington Heights, Ill.), and were sacrificed either 4 hours (pulse, FIG. 3A) or 72 hours (chase, FIG. 3B) later. The hearts were removed, cryoprotected in 30% sucrose, embedded and sectioned at 10 μm using standard histologic techniques. The sections were post-fixed in formaldehyde:glutaraldehyde (1:1) and overlaid with 1 mg/ml X-GAL, 5 mM potassium ferricyanide, 5 mM potassium ferrocyanide and 2 mM magnesium chloride in PBS. The sections were counter-stained with DAPI, and washed three times in PBS. After drying, stained slides were coated with photographic emulsion (Ilford L.4, Polysciences, Warrington Pa.) diluted 1:1 with water, drained, and placed in a light-tight box for four days at 4° C. Slides were then developed in Kodak D-19 (Rochester N.Y.) for four minutes, washed in water, and fixed in 30% sodium thiosulfate for at least four minutes. […]

[5] = Control mice, isoproterenol treated 7 days
[6] = MHC-CYCD2 mice, listed as Isoproterenol

CC(C)NCC(O)c1ccc(O)c(O)c1 (centres unmarked) [isoproterenol]
CDC2 protein level ([1]; NonTransgenic (+Iso)): + + | Cyclin D2 protein level ([1]; NonTransgenic (+Iso)): + | PCNA protein level ([1]; NonTransgenic (+Iso)): + + | CDC2 protein level ([1]; Transgenic (+Iso)): + + + + | Cyclin D2 protein level ([1]; Transgenic (+Iso)): + + + + + | PCNA protein level ([1]; Transgenic (+Iso)): + + + + | increase in heart weight/body weight ([2]; control mice, isoproterenol vs saline treated animals): 28% | increase in heart weight/body weight ([2]; cyclin expressing mice, continuous isoproterenol 7 days): 47.6% | number of cardiomyocyte nuclei in the culture [3]: substantial increase | Left Atrium cardiomyocyte labeling index ([4]; Control (MHC-nLAC) mice): 0% | Right Atrium cardiomyocyte labeling index ([4]; Control (MHC-nLAC) mice): 0% | Ventricle cardiomyocyte labeling index ([4]; Control (MHC-nLAC) mice): 0% | Left Atrial DNA Synth. (%) Iso(7 days) [4, 5]: 0.00% | Ventricular DNA Synth. (%) Iso(7 days) [4, 5]: 0.00% | Left Atrium cardiomyocyte labeling index ([4]; MHC-CYCD2 mice): 7.28% | Ventricle cardiomyocyte labeling index ([4]; MHC-CYCD2 mice): moderately decreased | Left Atrium cardiomyocyte labeling index [4, 6]: 7.28% | Right Atrium cardiomyocyte labeling index [4, 6]: 0.29% | Ventricle cardiomyocyte labeling index [4, 6]: 0.11% | effect on cardiomyocyte DNA synthesis ([4]; non-cyclin expressing control group, isoproterenol treatment): no effect
